In article PMC3390971 (Clinical Cancer Research, 2010):
Where “and” joins values, the source holds several entries; their conditions need not be identical. Equal entries are not always repeated. Where two headings read alike, the source gives them in different places. Marks after values point to notes of the source that are not given here.

Key:
HT29 cells [1] = test: Oxygen dependence of cytotoxicity and metabolism in stirred cell suspensions; format: cell-based, human; settings: mean ± SEM
HT29 cells [2] = test: Clonogenic cell killing in stirred single cell suspensions; format: cell-based, human; settings: anoxia, mean ± SEM
[3] = Mouse plasma protein binding; format: in vitro ADME; settings: mean ± SEM
[4] = Animal toxicity: maximum tolerated dose in mice; format: in vivo
[5] = Animal toxicity: maximum tolerated dose in rats; format: in vivo
[6] = test system: HT29, SiHa and H460 xenografts; test: Excision; format: in vivo, CD-1 nude mice; settings: three xenograft models, 75% of MTD
SiHa xenografts = test: SiHa xenograft tumor regrowth assay with fractionated radiation; format: in vivo, CD-1 nude mice; settings: for Radiation-induced tumor regrowth delay: 30 min before each of 2 Gy × 8
8 human tumor cell lines = test: In vitro growth inhibition; format: cell-based; settings: 8 cell lines
HT29 MCL [7] = test system: HT29 MCL
[8] = mouse, in vivo
[9] = cited from earlier work
[10] = cited from earlier work; remark: listed apart in the source
[11] = cited from earlier work; remark: listed apart in the source
[12] = cited from earlier work; remark: listed apart in the source
[13] = Plasma pharmacokinetics in mice; settings: male CD-1 nude mice, single i.p. dose at 75% of MTD
HT29 MCL [14] = test: Diffusion in multicellular layers; settings: higher than TPZ
HT29 cells [15] = settings: HT29 cell suspensions, mean ± SEM
HT29 cells [16] = settings: cited from earlier work
[17] = mouse; cited from earlier work

Question: What does the source list for `[O-][n+]1nc(CCCN2CCOCC2)[n+]([O-])c2cc3c(cc21)CCC3` [SN30000]?
Answer: KO2, O2 concentration to halve anoxic cytotoxic potency (HT29 cells [1]): 1140 ± 240 nM; γ, proportionality constant in PD model (anoxic clonogenic potency coefficient) (HT29 cells [2]): 5.34 ± 0.89 (13) ×10^−5 µM^−2; θ, free fraction of drug in plasma in mice [3]: 83 ± 1%; MTD for bi-daily dosing for 4 consecutive days (BID1-4) ([4]; i.p., 9 am and 3 pm, 4 consecutive days, CD-1 nude mice): 237 µmol/kg; Maximum tolerated dose (MTD) ([4]; single i.p. administration, male CD-1 nude mice): 275 mg/kg; MTD (molar dose) relative to TPZ ([4]; single i.p., male CD-1 nude mice, higher than TPZ): 4.2 fold; MTD ([5]; Sprague-Dawley rats, both sexes, single i.p. dose): 316 µmol/kg; Therapeutic gain over TPZ with single dose radiation [6]: ~3 fold; Radiation-induced tumor regrowth delay (SiHa xenografts; 176 µmol/kg/dose, p=0.0058 log rank test): highly significant increases; Activity of drug alone in tumor regrowth assay (SiHa xenografts; 263 µmol/kg/dose, 8-dose schedule, without radiation): not significantly active; Radiation-induced tumor regrowth delay (SiHa xenografts; 263 µmol/kg/dose, p=0.0004 log rank test): highly significant increases; HCR (aerobic IC50 / anoxic IC50) compared across compounds (8 human tumor cell lines): consistently higher; Potency under anoxia (hypoxic IC50) compared with TPZ (8 human tumor cell lines; 4 h exposure, anoxia): consistently more potent than TPZ; D, diffusion coefficient in HT29 MCLs and tumors (HT29 MCL [7]): 1.26 ± 0.11 (6) ×10^−6 cm^2s^−1; i.p. bioavailability [8]: 77%; Solubility in culture medium at 37°C [9]: 48.5 ^c mM; E(1) One electron reduction potential [10]: −399 ± 8 ^c mV; One-electron reduction potential difference (higher than TPZ) [10]: 57 mV; Calculated amine pKa [11]: 7.1 ^c; Log P, pH 7.4 (octanol:water partition coefficient) [12]: 0.50 ± 0.05 ^c; AUCp∞, area under the plasma (total drug) concentration-time curve extrapolated to infinity in mice [13]: 79 µM·h; t½, plasma terminal half life in mice [13]: 32 min and 32.1 min; DMCL relative to TPZ (HT29 MCL [14]): 3 fold; kmet0, first order rate constant for prodrug metabolism under anoxia (HT29 cells [15]): 1.53 ± 0.21 min^−1 and 1.53 ± 0.21 (8) min^−1

Question: Which “γ, proportionality constant in PD model (anoxic clonogenic potency coefficient)” value (HT29 cells [2]) does the source give for `Nc1n[n+]([O-])c2ccccc2[n+]1[O-]` [TPZ, tirapazamine, reference compound] here?
Answer: The value was 2.41± 0.13 (72) ×10^−5 µM^−2.

Question: And the MTD at 4 days ([4]; CD-1 nu/nu, mouse, in vivo, ip)?
Answer: Its MTD at 4 days is 75 µmol/kg.

Question: And the MTD at 28 days ([4]; male, CD-1 nu/nu, mouse, in vivo, ip)?
Answer: Its MTD at 28 days is 178 µmol/kg.

Question: What about the MTD at 28 days ([5]; both, Sprague-Dawley, rat, in vivo, ip) of the same compound?
Answer: The MTD at 28 days was 178 µmol/kg.

Question: What about the “D, diffusion coefficient in HT29 MCLs and tumors” value (HT29 MCL [7]; human) of the same compound?
Answer: Its value is 0.40 ± 0.02 (12) ×10^−6 cm^2s^−1.

Question: And the “E(1) One electron reduction potential” value [10]?
Answer: Its value is −456 ± 8 ^a mV.

Question: And the “Log P, pH 7.4 (octanol:water partition coefficient)” value [12]?
Answer: The value was −0.34 ± 0.02 ^a.

Question: And the “KO2, O2 concentration to halve anoxic cytotoxic potency” value (HT29 cells [16])?
Answer: Its value is 1.21 ± 0.09 ^d µM.

Question: And the “θ, free fraction of drug in plasma in mice” value [17]?
Answer: Its value is 100 ± 5.3 ^f %.
